According to patent US5276034A, “Substituted imidazolyl-alkyl-piperazine and -diazepine derivatives” (Syntex Pharmaceutical Ltd., priority 1991, dated 1994):

What was measured:
[1] = tested on: barium-stimulated intestinal transit of the charcoal meal; experiment: Irritable bowel syndrome: intestinal transit of a charcoal meal in conscious mice, barium chloride stimulated; type: in vivo, mouse; conditions: Mus musculus, po, 15 min pre-treatment, % of total transit induced by Ba^+2, read-out: % Inhibition of Ba^+2 effect
Experimental: (§1) The test used is a modification of the method of Macht and Barba-Gose, J. Amer. Pharm. […] In the present model, intestinal transit in conscious mice (15-20 g) was accelerated with an oral dose of barium chloride (300 mg/kg) administered at the same time as the charcoal meal. The animals were sacrificed 10 minutes later and the distance travelled by the charcoal measured. 1-diphenyl-methyl-4-[(2-(4-methylphenyl)-5-methylimidazol-4-yl)methyl]-piperazine trihydrochloride was given as a 15 minute oral pre-treatment and its effect on non-stimulated or barium-stimulated intestinal transit of the charcoal meal was calculated.

[2] = tested on: pentylenetetrazole-induced seizures and mortality; experiment: Effect on pentylenetetrazole-induced seizures and mortality in the mouse; type: in vivo, mouse (male CDI); conditions: 500 mg/kg i.p., pentylenetetrazole 100 mg/kg s.c.
Experimental: C. The effect of 1-diphenyl-methyl-4-[(2-(4-methylphenyl)-5-methylimidazol-4-yl)-methyl]piperazine trihydrochloride on pentylenetetrazole-induced seizures and mortality in the mouse.
The procedure used was that described in Allely, and Alps, Br. J. Phramacol. Proc. Suppl., 92, 605P (1987). Groups of 20 or more (see n in table) male CDI mice were predosed with 500 mg/kg i.p. of 1-diphenyl-methyl-4-[(2-(4-methylphenyl)-5-methylimidazol-4-yl)methyl]piperazine trihydrochloride at one of three dosing schedules--A (15minutes), B (60 minutes), or C (3 days b.i.d. plus 15 minutes on 4th day)--before challenging with 100 mg/kg of pentylenetetrazole s.c. The animals were then observed for a 30 minute period and the occurrence of clonic or tonic seizures or death noted. Statistical analysis was by a Chi squared test of association. Results compared against saline treated animals are shown in the below table.

[3] = tested on: non-stimulated intestinal transit of the charcoal meal; experiment: Intestinal transit of a charcoal meal in conscious mice, non-stimulated; type: in vivo; conditions: Mus musculus, po, 15 min pre-treatment, read-out: % Inhibition Normal Transition
Experimental: as §1

[4] = schedule C (3 days b.i.d. plus 15 minutes on 4th day), n=24

Work on `Cc1ccc(-c2nc(CN3CCN(C(c4ccccc4)c4ccccc4)CC3)c(C)[nH]2)cc1.Cl.Cl.Cl` [1-diphenylmethyl-4-[(2-(4-methylphenyl)-5-methylimidazol-4-yl)methyl]piperazine trihydrochloride] yielded an inhibition at 5 mg/kg ([1]; 5 mg/kg p.o.) of 14%, an inhibition at 25 mg/kg ([1]; 25 mg/kg p.o.) of -30.4% and an inhibition at 60 mg/kg ([1]; 60 mg/kg p.o.) of -31.7%. The “% clonic seizures” value ([2]; schedule A (15 minutes), n=20) was 85.0%, the “% death” value ([2]; schedule A (15 minutes), n=20) was 50.0% and the “% tonic seizures” value ([2]; schedule A (15 minutes), n=20) was 85.0%. The “% clonic seizures” value ([2]; schedule B (60 minutes), n=25) was 88.0%, the “% death” value ([2]; schedule B (60 minutes), n=25) was 36.0% and the “% tonic seizures” value ([2]; schedule B (60 minutes), n=25) was 64.0%. The “% clonic seizures” value [2, 4] was 66.7%, the “% death” value [2, 4] was 45.0% and the “% tonic seizures” value [2, 4] was 41.7%. For the same compound, the inhibition at 5 mg/kg ([3]; 5 mg/kg p.o.) was -19.3%, the inhibition at 25 mg/kg ([3]; 25 mg/kg p.o.) was -28.7% and the inhibition at 60 mg/kg ([3]; 60 mg/kg p.o.) was -16.1%.
